Source: ChEMBL document CHEMBL1201862, “PubChem BioAssay data set” (2004)
The source made the active and inactive calls.

Experiments:
Bcl-2-related protein A1 = biological target: T1, Bcl-2-related protein A1 (Mus musculus, UniProt Q07440); format: functional;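 further: confirmatory dose–response counterscreen on Bfl-1, used to check hits from a UBC13 polyubiquitin inhibitor campaign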
T1 sequence (Q07440 whole entry): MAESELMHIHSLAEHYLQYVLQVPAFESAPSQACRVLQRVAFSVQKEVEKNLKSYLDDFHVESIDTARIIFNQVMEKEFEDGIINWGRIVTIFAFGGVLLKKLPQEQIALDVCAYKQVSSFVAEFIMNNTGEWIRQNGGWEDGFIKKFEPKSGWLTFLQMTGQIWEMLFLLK

[1] = biological target: T2, Ubiquitin-conjugating enzyme E2 N (Homo sapiens, UniProt P61088); format: functional
T2 sequence (P61088 whole entry): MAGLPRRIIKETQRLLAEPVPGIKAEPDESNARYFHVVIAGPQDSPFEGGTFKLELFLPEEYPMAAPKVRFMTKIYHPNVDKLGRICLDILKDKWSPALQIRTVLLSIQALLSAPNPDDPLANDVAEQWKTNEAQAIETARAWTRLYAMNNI

[2] = biological target: T2, Ubiquitin-conjugating enzyme E2 N; format: functional; remark: listed apart in the source
[3] = biological target: Heat shock protein HSP 90-alpha (Homo sapiens, UniProt P07900); format: functional, organism-based
[4] = biological target: T3, Apoptotic protease-activating factor 1 (Homo sapiens, UniProt O14727); format: functional
T3 sequence (O14727 whole entry): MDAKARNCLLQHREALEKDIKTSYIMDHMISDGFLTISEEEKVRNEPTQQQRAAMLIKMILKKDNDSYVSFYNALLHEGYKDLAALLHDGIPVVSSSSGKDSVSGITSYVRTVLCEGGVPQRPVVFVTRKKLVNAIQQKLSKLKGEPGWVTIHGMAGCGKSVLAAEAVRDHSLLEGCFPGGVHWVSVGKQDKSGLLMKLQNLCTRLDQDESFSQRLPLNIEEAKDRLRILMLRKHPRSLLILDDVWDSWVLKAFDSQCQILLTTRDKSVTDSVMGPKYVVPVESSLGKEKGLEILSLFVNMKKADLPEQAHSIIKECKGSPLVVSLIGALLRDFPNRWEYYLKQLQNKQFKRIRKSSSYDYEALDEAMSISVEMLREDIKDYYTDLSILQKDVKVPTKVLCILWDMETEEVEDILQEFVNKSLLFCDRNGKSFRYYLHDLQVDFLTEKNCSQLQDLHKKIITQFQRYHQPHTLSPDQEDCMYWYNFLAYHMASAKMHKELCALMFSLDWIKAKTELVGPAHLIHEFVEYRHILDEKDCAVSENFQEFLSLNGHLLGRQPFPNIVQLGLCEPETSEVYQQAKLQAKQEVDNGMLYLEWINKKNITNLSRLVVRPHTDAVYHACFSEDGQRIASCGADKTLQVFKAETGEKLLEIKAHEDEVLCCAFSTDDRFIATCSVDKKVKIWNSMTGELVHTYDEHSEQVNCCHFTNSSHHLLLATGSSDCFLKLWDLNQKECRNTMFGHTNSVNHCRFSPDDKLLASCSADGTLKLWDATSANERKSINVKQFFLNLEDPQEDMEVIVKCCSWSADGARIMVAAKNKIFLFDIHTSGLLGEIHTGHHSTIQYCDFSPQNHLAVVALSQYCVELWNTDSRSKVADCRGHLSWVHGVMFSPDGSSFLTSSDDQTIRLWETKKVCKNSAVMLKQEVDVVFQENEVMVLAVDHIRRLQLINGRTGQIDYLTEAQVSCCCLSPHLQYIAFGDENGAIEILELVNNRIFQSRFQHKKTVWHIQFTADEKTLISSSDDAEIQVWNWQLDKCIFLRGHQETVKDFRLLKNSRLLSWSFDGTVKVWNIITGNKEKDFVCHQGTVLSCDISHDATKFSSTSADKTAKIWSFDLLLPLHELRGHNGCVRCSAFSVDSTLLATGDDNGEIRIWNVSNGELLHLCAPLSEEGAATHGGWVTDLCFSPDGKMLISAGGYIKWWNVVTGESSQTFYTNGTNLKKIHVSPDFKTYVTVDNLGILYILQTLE

INS1 = assay: beta cell apoptosis inhibitors, cytokine rescue, dose response, luminescence, retest (AID 449756); format: functional, cell-based; settings: Rattus norvegicus;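 further: cell death triggered by IL-1 beta plus TNF-alpha plus IFN-gamma mixture; protective hits raise ATP signal compared with cytokine alone wells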
[5] = biological target: T4, DNA repair protein RAD52 homolog (Homo sapiens, UniProt P43351); format: functional, biochemical
T4 sequence (P43351 whole entry): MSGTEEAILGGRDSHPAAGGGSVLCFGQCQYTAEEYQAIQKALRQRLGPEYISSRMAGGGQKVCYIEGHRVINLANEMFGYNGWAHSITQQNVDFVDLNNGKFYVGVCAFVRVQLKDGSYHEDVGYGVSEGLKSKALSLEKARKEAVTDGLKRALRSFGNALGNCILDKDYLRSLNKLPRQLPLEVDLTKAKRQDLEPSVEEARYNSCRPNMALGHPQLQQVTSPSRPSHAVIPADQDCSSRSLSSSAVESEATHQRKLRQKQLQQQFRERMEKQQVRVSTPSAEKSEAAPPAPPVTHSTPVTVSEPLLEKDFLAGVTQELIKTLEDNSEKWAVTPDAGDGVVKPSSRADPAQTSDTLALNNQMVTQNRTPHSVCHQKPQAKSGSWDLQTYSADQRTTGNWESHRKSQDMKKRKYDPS

[6] = biological target: 26S proteasome non-ATPase regulatory subunit 14 (Homo sapiens, UniProt O00487); assay: inhibition of proteasome subunit RPN11 – biochemical, fluorescence polarization, uHTS hits, confirmation (AID 602368); format: functional
Chain of 26S proteasome non-ATPase regulatory subunit 14 (O00487 whole entry): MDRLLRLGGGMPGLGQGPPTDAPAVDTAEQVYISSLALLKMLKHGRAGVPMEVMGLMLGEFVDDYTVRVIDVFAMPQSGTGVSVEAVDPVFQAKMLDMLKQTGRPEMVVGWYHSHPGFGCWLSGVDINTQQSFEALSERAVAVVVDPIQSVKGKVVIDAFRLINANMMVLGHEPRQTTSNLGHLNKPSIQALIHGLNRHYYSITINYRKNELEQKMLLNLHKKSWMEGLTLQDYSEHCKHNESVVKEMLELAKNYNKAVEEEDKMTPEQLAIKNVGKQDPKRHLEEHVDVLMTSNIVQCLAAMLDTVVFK

[7] = biological target: 72 kDa type IV collagenase (Homo sapiens, UniProt P08253); assay: Dose Response validation of uHTS RPN11 inhibitor hits using a MMP-2 Fluorescence assay.; format: functional
Chain of 72 kDa type IV collagenase (P08253 whole entry): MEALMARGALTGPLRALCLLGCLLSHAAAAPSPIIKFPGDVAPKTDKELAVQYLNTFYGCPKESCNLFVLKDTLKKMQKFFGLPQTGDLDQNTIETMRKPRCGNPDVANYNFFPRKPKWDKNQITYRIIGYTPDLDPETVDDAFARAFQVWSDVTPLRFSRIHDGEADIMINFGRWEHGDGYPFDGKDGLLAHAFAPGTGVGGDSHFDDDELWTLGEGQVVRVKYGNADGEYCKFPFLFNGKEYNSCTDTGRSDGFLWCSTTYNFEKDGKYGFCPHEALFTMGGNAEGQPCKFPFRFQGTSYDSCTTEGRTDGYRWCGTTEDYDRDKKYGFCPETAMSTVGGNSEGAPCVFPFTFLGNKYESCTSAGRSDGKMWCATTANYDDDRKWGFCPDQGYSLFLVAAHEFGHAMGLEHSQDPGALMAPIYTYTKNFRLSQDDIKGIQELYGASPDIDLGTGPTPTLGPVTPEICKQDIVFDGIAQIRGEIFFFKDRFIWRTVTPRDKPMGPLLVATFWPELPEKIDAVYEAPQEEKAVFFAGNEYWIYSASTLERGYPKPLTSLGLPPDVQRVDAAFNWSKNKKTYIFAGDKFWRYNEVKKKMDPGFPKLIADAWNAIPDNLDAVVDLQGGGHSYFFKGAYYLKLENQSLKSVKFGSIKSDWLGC

Prothrombin = Prothrombin (Bos taurus, UniProt P00735); assay: thrombin inhibition, dose response, biochemical, fluorescence polarization, uHTS hits (AID 602369); format: functional
Aminopeptidase N = biological target: T5, Aminopeptidase N (Plasmodium falciparum FcB1/Columbia, UniProt O96935); assay: P. falciparum M1AAP inhibitors, biochemical, fluorogenic H-Leu-NHMec substrate, 1536-well (AID 1445); design: species or system Plasmodium falciparum 3D7, 3D7
T5 sequence (O96935 whole entry): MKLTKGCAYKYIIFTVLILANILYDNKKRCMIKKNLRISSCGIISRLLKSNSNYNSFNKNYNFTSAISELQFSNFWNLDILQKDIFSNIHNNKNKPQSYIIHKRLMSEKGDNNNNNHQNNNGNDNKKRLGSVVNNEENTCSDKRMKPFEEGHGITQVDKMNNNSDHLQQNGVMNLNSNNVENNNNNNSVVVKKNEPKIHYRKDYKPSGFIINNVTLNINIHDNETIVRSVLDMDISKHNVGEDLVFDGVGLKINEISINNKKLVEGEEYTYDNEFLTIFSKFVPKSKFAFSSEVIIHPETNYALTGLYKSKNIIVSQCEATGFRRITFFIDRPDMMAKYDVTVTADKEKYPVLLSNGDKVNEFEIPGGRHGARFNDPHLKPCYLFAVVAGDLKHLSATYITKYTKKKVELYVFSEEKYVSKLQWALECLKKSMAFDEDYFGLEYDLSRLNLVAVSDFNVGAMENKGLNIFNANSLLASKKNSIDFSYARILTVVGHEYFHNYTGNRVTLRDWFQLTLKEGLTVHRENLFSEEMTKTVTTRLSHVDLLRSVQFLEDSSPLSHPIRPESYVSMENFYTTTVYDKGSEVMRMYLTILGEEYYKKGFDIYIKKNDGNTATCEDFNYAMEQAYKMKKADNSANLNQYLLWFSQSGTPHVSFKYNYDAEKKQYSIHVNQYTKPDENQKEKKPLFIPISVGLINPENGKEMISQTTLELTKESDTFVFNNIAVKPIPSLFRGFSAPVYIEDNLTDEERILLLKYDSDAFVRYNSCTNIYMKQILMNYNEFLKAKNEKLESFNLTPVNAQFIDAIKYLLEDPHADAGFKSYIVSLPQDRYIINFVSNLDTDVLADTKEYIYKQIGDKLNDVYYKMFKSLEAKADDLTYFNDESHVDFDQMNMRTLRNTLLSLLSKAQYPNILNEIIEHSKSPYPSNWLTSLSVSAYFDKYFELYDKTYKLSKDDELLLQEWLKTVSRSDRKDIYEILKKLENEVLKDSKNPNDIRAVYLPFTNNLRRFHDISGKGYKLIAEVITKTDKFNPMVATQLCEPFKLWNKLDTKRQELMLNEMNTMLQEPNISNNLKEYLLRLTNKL

[8] = biological target: T6, Carboxy-terminal domain RNA polymerase II polypeptide A small phosphatase 1 (Homo sapiens, UniProt Q9GZU7); assay: inhibitors of CTDSP1, concentration-response testing, biochemical assay, absorbance-based, actives from ultra-high-throughput screening (AID 540297); format: functional
T6 sequence (Q9GZU7 whole entry): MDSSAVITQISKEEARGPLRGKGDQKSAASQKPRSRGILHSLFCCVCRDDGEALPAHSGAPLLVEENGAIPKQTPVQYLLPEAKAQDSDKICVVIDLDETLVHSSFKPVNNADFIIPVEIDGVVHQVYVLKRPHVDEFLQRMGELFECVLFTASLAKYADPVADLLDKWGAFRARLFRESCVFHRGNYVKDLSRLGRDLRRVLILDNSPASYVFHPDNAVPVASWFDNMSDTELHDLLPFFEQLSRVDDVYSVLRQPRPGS

[9] = biological target: T7, Small ubiquitin-related modifier 1 (Homo sapiens, UniProt P63165); assay: inhibitors of SUMO1 peptide binding, dose response, biochemical, fluorescence polarization, uHTS hits (AID 624382); format: functional; settings: read-out: IC50_Mean
T7 sequence (P63165 whole entry): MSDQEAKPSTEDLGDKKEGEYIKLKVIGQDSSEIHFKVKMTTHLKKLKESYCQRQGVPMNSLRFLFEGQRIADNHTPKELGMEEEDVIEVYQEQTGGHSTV

[10] = biological target: T7, Small ubiquitin-related modifier 1; assay: inhibitors of SUMO1 partner interactions, dose response, biochemical, FRET (AID 624383); format: functional; settings: read-out: IC50_Mean
P388/ADR = assay: cells; format: functional; settings: Mus musculus
SN12K1 = assay: cells; format: functional; settings: Homo sapiens
[11] = miR-122 activators in hepatoma reporter cells, dose response, cell-based, Huh7 psiCHECK-miR122, Renilla luciferase, cherry-picked (AID 651956); format: functional;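 further: huh7 hepatoma cells stably carrying a psiCHECK-2 miR-122 sensor plasmid; renilla luciferase signal reporting endogenous miR-122 activity after 48 h compound exposure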

Which results are given for `Cc1cc(C(C)(C)CC(C)(C)C)ccc1OCCOCC[N+](C)(C)Cc1ccccc1`?
IC50 (Bcl-2-related protein A1): 14.9 µM (active); IC50 [1]: 8.92 µM (active); IC50 [2]: 9.49 µM (active); AC50 [3]: 7.56 µM (active); IC50 [4]: 21.3 µM (active); AC50 (INS1): 2.41 µM (active); AC50 [5]: 20.4 µM (active)

For `Cn1cncc1C#Cc1ccc2cc(C3(O)CCCCC3)oc(=O)c2c1`, which IC50 [6] is on record?
Its IC50 is 32.5 µM (active).

And the IC50 [7]?
The IC50 was > 100 µM (inactive).

And the IC50 (Prothrombin)?
The IC50 was 53.3 µM (active).

Which IC50 (Aminopeptidase N) does the source give for `COc1ccccc1N1C(=N)S/C(=C\c2ccc(-c3ccccc3C(=O)O)o2)C1=O` here?
Its IC50 is 21.7 µM (active).

What about the IC50 [8] of the same compound?
The IC50 was 8.51 µM (active).

And the IC50 [6]?
The IC50 was 24.8 µM (active).

What about the IC50 [7] of the same compound?
Its IC50 is > 100 µM (inactive).

What about the IC50 (Prothrombin) of the same compound?
The IC50 was 68.5 µM (active).

Which IC50 [9] does the source give for `COc1ccc(-n2c(SCC(=O)Nc3cccc(S(N)(=O)=O)c3)nc3ccccc3c2=O)cc1OC` here?
Its IC50 is > 66.6 µM (inactive).

What about the IC50 [10] of the same compound?
Its IC50 is 4.19 µM (active).

Which IC50 [4] does the source give for `C=CCn1c(COc2cccc(C)c2)nnc1SC(C)C(=O)NC1CC1` (centres undefined) here?
The IC50 was > 100 µM (inactive).

Which results are given for `C/C(=C/c1c(C)[nH]c(=O)[nH]c1=O)C(=O)O`?
GI50 (P388/ADR): 813 µM (inactive); GI50 (SN12K1): > 1370 µM (inactive)

With `CCC(=O)N(C)C[C@@H]1[C@H](c2ccc(-c3ccccc3F)cc2)[C@H](CO)N1C(C)=O` as the compound, how does the AC50 [11] read?
Its AC50 is 49.5 µM (active).

For `CN1C(=O)c2cc(NC(=O)c3cccc(F)c3)ccc2OC[C@@H]2O[C@H](CC(=O)O)CC[C@H]21`, which AC50 [11] is on record?
The AC50 was 51.2 µM (active).

With `CCCCCCC(=O)Nc1nc(C)c(-c2csc(Nc3cc(OC)ccc3OC)n2)s1` as the compound, how does the IC50 [9] read?
The IC50 was > 66.6 µM (inactive).

What about the IC50 [10] of the same compound?
The IC50 was 11.2 µM (active).
